In patent EP4582413A1, “ARYLTETRAHYDROPYRIDINE COMPOUND AND PEST CONTROL AGENT” (priority 2022, dated 2024):

Assays:
[1] = tested on: green peach aphids (Myzus persicae); experiment: Insecticidal test for green peach aphids; type: in vivo; conditions: 500 ppm chemical solution sprinkled (2.5 mg/cm^2), wingless imagoes on leaf disc, six days, 25°C; for mortality at 500 µg/mL: Myzus persicae, foliar, 144 h, read-out: death rate; for death rate: 8640 min
Procedure: Wet absorbent cotton was laid on each glass dish having an inner diameter of 3 cm, a Chinese olive leaf cut into a circle having a diameter of 3 cm was placed thereon, and four wingless green peach aphids (Myzus persicae) imagoes were released. After a day, a 10% by mass emulsion of the presently invented compound prepared according to the above formulation example for an emulsion was diluted with water containing a spreader to prepare a chemical solution having a concentration of 500 ppm. The chemical solution prepared was sprinkled (2.5 mg/cm^2) with a rotary tower sprinkler, and the dishes were capped and accommodated in a thermostatic room at 25°C. […] The test was carried out in duplicate.

Trichostrongylus axei = experiment: Effect test for Trichostrongylus axei; type: in vivo; parameters: concentration or dose not given beside the values; conditions: test chemical solution B added to eggs in 96-well plate, unhatched eggs and inactive larvae counted 4 days after addition, 25°C, relative to untreated plot
Procedure: Agar medium with 1% potato dextrose was aliquoted into 60-µl portions in a 96-well plate, and 30 µl of sterilized water containing Trichostrongylus axei eggs and a freeze-dried Escherichia coli OP50 strain (five eggs, 10 µg/10 µl Escherichia coli) was added to each well. From above, 10 µl of test chemical solution B of the presently invented compound was added to each well, and the plate was left to stand under dark conditions at 25°C.

SMILES	efficacy (%) (Trichostrongylus axei)	further results
O=C(Nc1ccc(F)cc1)C1=C(O)CC(c2cncc(-c3cccc(C(F)(F)F)c3)c2)NC1=O (stereo not shown) [2-003]	–	mortality at 500 µg/mL [1]: ≥ 90%
CCCOc1ccc(-c2cncc(C3CC(O)=C(C(=O)Nc4ccc(F)cc4)C(=O)N3)c2)cn1 (stereo not shown) [2-007]	–	death rate [1]: ≥ 90%
O=C(Nc1ccc(Cl)nn1)C1=C(O)CC(c2cnc(Cl)c(-c3ccc(Cl)nc3)c2)NC1=O (stereo not shown) [2-046]	–	death rate [1]: ≥ 90%
O=C(Nc1ccc(Cl)nc1)C1=C(O)CC(c2cnc(C(F)(F)F)c(-c3ccc(F)nc3)c2)NC1=O (stereo not shown) [2-170]	≥ 50%	–
Cc1ccc(NC(=O)C2=C(O)CC(c3cnc(C(F)(F)F)c(-c4ccc(F)nc4)c3)NC2=O)nc1 (stereo not shown) [2-171]	≥ 50%	–
Cn1ccc(NC(=O)C2=C(O)CC(c3cnc(C(F)(F)F)c(-c4ccc(F)nc4)c3)NC2=O)n1 (stereo not shown) [2-172]	≥ 50%	–
O=C(Nc1ccc(Br)cn1)C1=C(O)CC(c2cnc(C(F)(F)F)c(-c3ccc(F)nc3)c2)NC1=O (stereo not shown) [2-177]	≥ 50%	–
O=C(Nc1ccc(C(F)(F)F)cn1)C1=C(O)CC(c2cnc(C(F)(F)F)c(-c3ccc(F)nc3)c2)NC1=O (stereo not shown) [2-179]	≥ 50%	–
O=C(Nc1ncc(Cl)cc1F)C1=C(O)CC(c2cnc(C(F)(F)F)c(-c3ccc(F)nc3)c2)NC1=O (stereo not shown) [2-181]	≥ 50%	–
O=C(Nc1ccc(Cl)cn1)C1=C(O)CC(c2cnc(Cl)c(-c3ccc(F)cc3)c2)NC1=O (stereo not shown) [2-220]	≥ 50%	–
O=C(Nc1ccc(Cl)nc1)C1=C(O)CC(c2cnc(Cl)c(-c3ccc(F)cc3)c2)NC1=O (stereo not shown) [2-221]	≥ 50%	–
O=C(Nc1ncc(Cl)cc1F)C1=C(O)CC(c2cnc(Cl)c(-c3ccc(F)cc3)c2)NC1=O (stereo not shown) [2-232]	≥ 50%	–
O=C(Nc1ccc(C(F)(F)F)nc1)C1=C(O)CC(c2cnc(Cl)c(-c3ccc(F)cc3)c2)NC1=O (stereo not shown) [2-234]	≥ 50%	–
O=C(Nc1ccc(F)cn1)C1=C(O)CC(c2cnc(C(F)(F)F)c(-c3ccc(F)cc3)c2)NC1=O (stereo not shown) [2-244]	≥ 50%	–
COc1ccc(-c2cc(C3CC(O)=C(C(=O)Nc4ccc(F)cn4)C(=O)N3)cnc2C(F)(F)F)cc1 (stereo not shown) [2-245]	≥ 50%	–
O=C(Nc1ccc(F)cn1)C1=C(O)CC(c2cnc(C(F)(F)F)c(-c3cccc(F)c3)c2)NC1=O (stereo not shown) [2-246]	≥ 50%	–
COc1cccc(-c2cc(C3CC(O)=C(C(=O)Nc4ccc(F)cn4)C(=O)N3)cnc2C(F)(F)F)c1 (stereo not shown) [2-247]	≥ 50%	–
Cc1ccccc1-c1cc(C2CC(O)=C(C(=O)Nc3ccc(F)cn3)C(=O)N2)cnc1C(F)(F)F (stereo not shown) [2-248]	≥ 50%	–
O=C(Nc1ccc(F)cn1)C1=C(O)CC(c2cnc(C(F)(F)F)c(-c3ccccc3F)c2)NC1=O (stereo not shown) [2-249]	≥ 50%	–
COc1ccccc1-c1cc(C2CC(O)=C(C(=O)Nc3ccc(F)cn3)C(=O)N2)cnc1C(F)(F)F (stereo not shown) [2-250]	≥ 50%	–
O=C(Nc1ccc(F)cn1)C1=C(O)CC(c2cnc(C(F)(F)F)c(-c3cccnc3)c2)NC1=O (stereo not shown) [2-251]	≥ 50%	–
Cc1cccc(-c2cc(C3CC(O)=C(C(=O)Nc4ccc(F)cn4)C(=O)N3)cnc2Cl)c1 (stereo not shown) [2-252]	≥ 50%	–
Cc1cccc(-c2cc(C3CC(O)=C(C(=O)Nc4ccc(Cl)nc4)C(=O)N3)cnc2Cl)c1 (stereo not shown) [2-254]	≥ 50%	–
Cc1ccc(NC(=O)C2=C(O)CC(c3cnc(Cl)c(-c4cccc(C)c4)c3)NC2=O)nc1 (stereo not shown) [2-255]	≥ 50%	–

SMILES	efficacy (%) (Trichostrongylus axei)	further results
Cc1cccc(-c2cc(C3CC(O)=C(C(=O)Nc4ccn(C)n4)C(=O)N3)cnc2Cl)c1 (stereo not shown) [2-256]	≥ 50%	–
Cc1cccc(-c2cc(C3CC(O)=C(C(=O)Nc4cc(C#N)ccn4)C(=O)N3)cnc2Cl)c1 (stereo not shown) [2-262]	≥ 50%	–
Cc1cccc(-c2cc(C3CC(O)=C(C(=O)Nc4ccc(C#N)nc4)C(=O)N3)cnc2Cl)c1 (stereo not shown) [2-266]	≥ 50%	–
Cc1cccc(-c2cc(C3CC(O)=C(C(=O)Nc4ncccc4C)C(=O)N3)cnc2Cl)c1 (stereo not shown) [2-272]	≥ 50%	–
Cc1ccc(NC(=O)C2=C(O)CC(c3cnc(Cl)c(-c4cccc(C)c4)c3)NC2=O)nc1 (stereo not shown) [2-273]	≥ 50%	–
CSc1cccc(NC(=O)C2=C(O)CC(c3cnc(Cl)c(-c4cccc(C)c4)c3)NC2=O)c1 (stereo not shown) [2-284]	–	death rate [1]: ≥ 90%
Cc1cccc(-c2cc(C3CC(O)=C(C(=O)Nc4cccc(S(C)(=O)=O)c4)C(=O)N3)cnc2Cl)c1 (stereo not shown) [2-285]	–	death rate [1]: ≥ 90%
O=C(Nc1cccnn1)C1=C(O)CC(c2cnc(Cl)c(-c3ccc(F)nc3)c2)NC1=O (stereo not shown) [2-289]	≥ 50%	–
Cn1nccc1NC(=O)C1=C(O)CC(c2cnc(Cl)c(-c3ccc(F)cc3)c2)NC1=O (stereo not shown) [2-290]	≥ 50%	–
O=C(Nc1nc[nH]n1)C1=C(O)CC(c2cnc(Cl)c(-c3ccc(F)cc3)c2)NC1=O (stereo not shown) [2-291]	≥ 50%	–
COC(=O)c1ccc(NC(=O)C2=C(O)CC(c3cnc(Cl)c(-c4ccc(F)cc4)c3)NC2=O)cc1 (stereo not shown) [2-292]	–	mortality at 500 µg/mL [1]: ≥ 90%
O=C(Nc1ccc(Cl)nc1)C1=C(O)CC(c2nc(-c3ccnc(F)c3)no2)NC1=O (stereo not shown) [3-060]	≥ 50%	–
Cc1cc(-c2noc(C3CC(O)=C(C(=O)Nc4ccc(F)cn4)C(=O)N3)n2)ccn1 (stereo not shown) [3-061]	≥ 50%	–
O=C(Nc1ccc(F)cn1)C1=C(O)CC(c2nc(-c3ccncc3F)no2)NC1=O (stereo not shown) [3-064]	≥ 50%	–
O=C(Nc1ccc(F)nc1)C1=C(O)CC(c2nc(-c3ccc(F)cc3)no2)NC1=O (stereo not shown) [3-082]	≥ 50%	–
O=C(Nc1ccc(F)cn1)C1=C(O)CC(c2nc(-c3cncc(F)c3)no2)NC1=O (stereo not shown) [3-083]	≥ 50%	–
Cn1ccc(-c2noc(C3CC(O)=C(C(=O)Nc4ccc(F)cn4)C(=O)N3)n2)n1 (stereo not shown) [3-085]	≥ 50%	–
O=C(Nc1ccc(F)cn1)C1=C(O)CC(c2nc(-c3csc(Br)c3)no2)NC1=O (stereo not shown) [3-086]	≥ 50%	–
Cc1ccc(-c2noc(C3CC(O)=C(C(=O)Nc4ccc(F)cn4)C(=O)N3)n2)cn1 (stereo not shown) [3-087]	≥ 50%	–
O=C(Nc1ccc(F)cn1)C1=C(O)CC(c2nc(-c3cncs3)no2)NC1=O (stereo not shown) [3-097]	≥ 50%	–
O=C(Nc1ccc(Cl)cn1)C1=C(O)CC(c2nc(-c3ccc(F)nc3)no2)NC1=O (stereo not shown) [3-102]	≥ 50%	–
O=C(Nc1ccc(F)cn1)C1=C(O)CC(c2nc(-c3ccsc3)no2)NC1=O (stereo not shown) [3-110]	≥ 50%	–
Cn1nc(Cl)c(-c2noc(C3CC(O)=C(C(=O)Nc4ccc(F)cn4)C(=O)N3)n2)c1Cl (stereo not shown) [3-114]	≥ 50%	–
CN(C)c1ccc(-c2noc(C3CC(O)=C(C(=O)Nc4ccc(F)cc4)C(=O)N3)n2)cc1 (stereo not shown) [3-117]	–	mortality at 500 µg/mL [1]: ≥ 90%

SMILES	efficacy (%) (Trichostrongylus axei)	further results
CN(C)c1ccc(-c2noc(C3CC(O)=C(C(=O)Nc4ccc(F)cn4)C(=O)N3)n2)cc1 (stereo not shown) [3-118]	–	death rate [1]: ≥ 90%
Cc1cc(NC(=O)C2=C(O)CC(c3nc(-c4ccnc(F)c4)no3)NC2=O)on1 (stereo not shown) [3-121]	≥ 50%	–
CON=Cc1cccc(-c2noc(C3CC(O)=C(C(=O)Nc4ccc(F)cn4)C(=O)N3)n2)c1 (stereo not shown) [3-124]	≥ 50%	–
CON=C(C)c1cccc(-c2noc(C3CC(O)=C(C(=O)Nc4ccc(F)cn4)C(=O)N3)n2)c1 (stereo not shown) [3-125]	≥ 50%	–
Cc1ccc(NC(=O)C2=C(O)CC(c3nc(-c4ccc(F)cc4)no3)NC2=O)nc1 (stereo not shown) [3-127]	≥ 50%	–
Cc1ccc(NC(=O)C2=C(O)CC(c3nc(-c4cccc(F)c4)no3)NC2=O)nc1 (stereo not shown) [3-128]	≥ 50%	–
Cc1ccc(NC(=O)C2=C(O)CC(c3nc(-c4ccccc4F)no3)NC2=O)nc1 (stereo not shown) [3-129]	≥ 50%	–
COc1ccc(-c2noc(C3CC(O)=C(C(=O)Nc4ccc(F)cn4)C(=O)N3)n2)cc1 (stereo not shown) [3-137]	≥ 50%	–
O=C(Nc1ccc(F)cn1)C1=C(O)CC(c2nc(-c3cc(F)c(F)c(F)c3)no2)NC1=O (stereo not shown) [3-138]	≥ 50%	–
O=C(Nc1ccc(F)cn1)C1=C(O)CC(c2nc(-c3cc(F)c(F)cc3F)no2)NC1=O (stereo not shown) [3-139]	≥ 50%	–
O=C(Nc1ccc(F)cn1)C1=C(O)CC(c2nc(-c3ccc(F)c(Cl)c3)no2)NC1=O (stereo not shown) [3-141]	≥ 50%	–
O=C(Nc1ccc(F)cn1)C1=C(O)CC(c2nc(-c3ncc(C(F)(F)F)cc3Cl)no2)NC1=O (stereo not shown) [3-148]	≥ 50%	–
Cn1ccc(NC(=O)C2=C(O)CC(c3nc(-c4ccc(F)cc4F)no3)NC2=O)n1 (stereo not shown) [3-154]	≥ 50%	–
Cc1ccc(NC(=O)C2=C(O)CC(c3nc(-c4ncccn4)no3)NC2=O)nc1 (stereo not shown) [3-167]	–	death rate [1]: ≥ 90%
Cn1nc(Cl)c(-c2noc(C3CC(O)=C(C(=O)Nc4ccccn4)C(=O)N3)n2)c1Cl (stereo not shown) [3-170]	≥ 50%	–
Cn1nc(Cl)c(-c2noc(C3CC(O)=C(C(=O)Nc4nccs4)C(=O)N3)n2)c1Cl (stereo not shown) [3-171]	≥ 50%	–
O=C(Nc1ccc(Cl)cn1)C1=C(O)CC(c2nc(-c3cccc(F)c3)no2)NC1=O (stereo not shown) [3-180]	≥ 50%	–
O=C(Nc1cc(F)ccn1)C1=C(O)CC(c2nc(-c3ccc(F)cc3F)no2)NC1=O (stereo not shown) [3-199]	≥ 50%	–
Cn1ccc(NC(=O)C2=C(O)CC(c3nc(-c4ccc(F)cc4)no3)NC2=O)n1 (stereo not shown) [3-202]	≥ 50%	–
O=C(Nc1ncc(Cl)cc1F)C1=C(O)CC(c2nc(-c3ccc(F)nc3)no2)NC1=O (stereo not shown) [3-271]	≥ 50%	–
O=C(Nc1ccc(F)c(F)c1)C1=C(O)CC(c2nc(-c3ccc(F)nc3)no2)NC1=O (stereo not shown) [3-274]	≥ 50%	–
Cc1cc(-c2noc(C3CC(O)=C(C(=O)Nc4cc(C(F)(F)F)n(C)n4)C(=O)N3)n2)ccn1 (stereo not shown) [3-275]	≥ 50%	–
